What was measured:
[1] = target: T1, CCK (gallbladder) receptor (Cavia porcellus, UniProt Q63931); assay: CCK-receptor bioassay, isolated guinea-pig gall-bladder strip preparations, CCK-8 as agonist; type: cell-based, male Dunkin-Hartley guinea-pigs; settings: negative log10 of equilibrium dissociation constant, guinea-pig gall-bladder strips, CCK-8 agonist, test compound incubated for 60 minutes, 37° C; for Kb: read-out: pKB versus CCK (gallbladder) (converted)
T1 construct: Isolated, strip preparations were prepared from gall-bladders removed from male Dunkin-Hartley guinea-pigs; from tissue; host or cells: guinea-pig gall-bladder strips
T1 sequence (Q63931 1-430): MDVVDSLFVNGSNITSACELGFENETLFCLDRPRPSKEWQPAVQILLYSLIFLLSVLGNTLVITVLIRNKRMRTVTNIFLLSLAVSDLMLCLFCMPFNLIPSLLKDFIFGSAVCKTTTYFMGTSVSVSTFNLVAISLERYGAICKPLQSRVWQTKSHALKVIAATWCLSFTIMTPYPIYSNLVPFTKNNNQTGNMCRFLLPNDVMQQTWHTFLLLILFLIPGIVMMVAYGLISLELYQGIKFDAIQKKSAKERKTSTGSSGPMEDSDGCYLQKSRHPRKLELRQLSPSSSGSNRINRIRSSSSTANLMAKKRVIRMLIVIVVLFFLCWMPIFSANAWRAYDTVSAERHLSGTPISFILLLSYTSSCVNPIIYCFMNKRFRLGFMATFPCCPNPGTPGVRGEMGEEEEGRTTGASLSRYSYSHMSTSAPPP
Method: The compounds of the examples were assayed using a CCK-receptor bioassay as follows:
Isolated, strip preparations were prepared from gall-bladders removed from male Dunkin-Hartley guinea-pigs (250-500 g body weight) according to the method of La Morte, W. W., et al., J.P.E.T., 217, (3), 638-644 (1981).
The complete gall-bladder is removed and opened along the longitudinal axis. Strips measuring 3 mm in the longitudinal axis and 1 mm in the transverse axis are cut and then tied with cotton to stainless steel wires. The preparation is connected to a GRASS FTO3 isometric transducer under an initial loading tension of 1 g and is immersed in 20 mls of Krebs solution maintained at 37° C. and gassed with 95% O2 /5% CO2. The Krebs solution is as detailed above in connection with the fundus assay, except that the Ca^2+ concentration is decreased to 0.5 mM. After 30 mins the preparation is washed. Drug addition begins after an initial 90 min stabilisation period. Responses are measured as changes in tension from that immediately prior to any drug addition. Single cumulative agonist concentration-effect curves, using CCK-8 as agonist, are obtained on each preparation in the absence and presence of test compound which has been incubated for 60 minutes. The antagonist activity of the test compound is estimated and expressed as the negative logarithm (base 10) of the equilibrium dissociation constants (pKB) using the modifications of standard competitive analysis described by Black et al., Br. J. Pharmacol.,86,571-579, (1985) and Shankley et al., Br. J. Pharmacol.,94,264-274 (1988).

CCKA = target: T2, CCKA (Cavia porcellus, UniProt Q63931); assay: CCKA binding assay, pancreas membranes, [125I]-CCK8(S); parameters: species or system male guinea-pigs (Dunkin Hartley); settings: guinea-pig pancreas membranes, [125I]-CCK8(S) 200 pM, 0.375 μM PD134,308, 150 minutes at 21°, non-specific binding 100 nM L-364,718; for Ki: read-out: pKi CCKλ (converted)
T2 construct: The pancreatata were removed from male guinea-pigs (200-300 g; Dunkin Hartley); from tissue; host or cells: guinea-pig pancreas membranes
T2 sequence (Q63931 1-430): T1 sequence (Q63931 1-430)
Method: The compounds of the examples were also tested in a CCKA binding assay as follows:
The pancreatata were removed from male guinea-pigs (200-300 g; Dunkin Hartley) and placed in ice-cold HEPES buffer (pH 7.2@21°±3°). The pancreatata were homogenised in 40 ml ice-cold HEPES buffer using a polytron (Brinkmann, PT10, setting 10) 4×1 second. The homogenate was centrifuged at 39,800 g for 15 min at 4°. The supernatant was discarded and the pellet re-suspended using a Teflon-in-glass homogeniser in 20 volumes of fresh buffer and re-centrifuged as above. The final pellet was re-suspended using a Teflon-in-glass homogeniser to a tissue concentration of 1 mg ml^31 1 (original wet weight), and filtered through 500 μm pore-size Nytex mesh.
The membranes (400 μl; containing 0.375 μM PD134,308) are incubated for 150 minutes at 21°±3° in a final volume of 0.5 ml with HEPES buffer containing [^125 I]--CCK8 (S) (50 μl; 200 pM) and competing compound. Total and non-specific binding of [^125 I]--CCK8 (S) are defined using 50 μl of buffer and 50 μl of 100 nM L-364,718 respectively. The assay is terminated by rapid filtration through pre-soaked Whatman GF/B filters using a Brandell Cell Harvester. The filters were washed (3×3 ml) with ice-cold 50 mM Tris HCl (pH 7.4 at 4°) and bound radioactivity is determined by counting (1 min) in a gamma counter.

CCKB receptor = target: T3, CCKB receptor (Mus musculus, UniProt P56481); assay: CCKB radioligand binding assay in mouse cortical membranes, [125I] CCK-8S (selectivity testing); parameters: species or system male mice; settings: [125I] CCK-8S 200 pM, 150 min at 21°; for Ki: pH 7.2, non-specific binding L-365,260, read-out: pKi CCKB (converted)
T3 construct: CCKB receptor in mouse cortical membranes; from tissue; host or cells: mouse cerebral cortex membranes (male mice, Charles River)
T3 sequence (P56481 1-453): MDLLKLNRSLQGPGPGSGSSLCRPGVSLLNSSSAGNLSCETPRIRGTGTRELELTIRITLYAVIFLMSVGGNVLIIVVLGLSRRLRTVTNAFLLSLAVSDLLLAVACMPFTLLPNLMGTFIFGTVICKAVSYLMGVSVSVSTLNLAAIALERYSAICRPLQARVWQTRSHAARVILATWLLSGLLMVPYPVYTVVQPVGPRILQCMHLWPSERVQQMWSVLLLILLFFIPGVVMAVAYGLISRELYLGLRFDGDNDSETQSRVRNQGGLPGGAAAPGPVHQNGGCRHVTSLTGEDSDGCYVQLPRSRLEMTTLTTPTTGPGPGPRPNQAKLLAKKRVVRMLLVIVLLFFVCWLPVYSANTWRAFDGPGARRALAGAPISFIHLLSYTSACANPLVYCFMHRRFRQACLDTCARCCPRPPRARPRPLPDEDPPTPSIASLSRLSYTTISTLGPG
Method: The compounds were assayed for selectivity with respect to the CCKB receptor in mouse cortical membranes by means of a radioligand binding assay. The procedure was as follows:
The whole brains from male mice (CDI 22-25 g; Charles River) were removed and placed in ice-cold buffer (pH 7.2 at 21°±3° C.) of the following composition (mM); 10 HEPES, 130 NaCl, 4.7 KCl, 5 MgCl2, 1 EDTA and containing 0.25 g. 1^-1 bacitracin.
The cortex was dissected, weighed and homogenised in 40 ml ice-cold buffer using a Teflon-in-glass homogeniser. The homogenate was centrifuged at 39,800 g for 20 min at 4° C., the supernatant discarded and the pellet resuspended by homogenisation in fresh buffer. The homogenate was recentrifuged (39,800 g; 20 min at 4° C.) and the final pellet was resuspended in HEPES buffer to give a tissue concentration of 2 mg ml^-1 (original wet weight).
The membranes (400 μl) were incubated for 150 min at 21°±3° C. in a final volume of 0.5 ml with HEPES buffer containing [^125 I] CCK-8S (0.05 ml; 200 pM NEN 2200Ci.mmol^-1) and competing compound. Total and non-specific binding of [^125 I] CCK-8S were defined using 0.05 ml of buffer and 0.05 ml of 10 mM L-365,260, respectively. The assay was terminated by rapid filtration through pre-soaked Whatman GF/B filters using a Brandell Cell harvester. The filters were washed (3×3 ml) with ice-cold 50 mM Tris-HCl (pH 7.4 at 4° C.) and bound radioactivity determined by counting (1 min.) in a gamma counter.

SMILES | Kb [1] [nM] | Ki (CCKA) [nM] | Ki (CCKB receptor) [nM] | pKB versus CCK (gallbladder) [1] | pKi CCKλ (CCKA) | pKi CCKB (CCKB receptor; pH 7.2, non-specific binding L-365,260)
CCCCCN(CCCCC)C(=O)[C@@H](CC(=O)O)NS(=O)(=O)c1ccc2ccccc2c1 [Example 18, 2-Naphthalenesulphonyl-D-aspartyl dipentylamide] | 158 | 631 | 3160 |  |  | 
CCCCCCN(C)C(=O)[C@H](CC(=O)O)NS(=O)(=O)c1ccc2ccccc2c1 [Example 7, 2-Naphthalenesulphonyl-L-aspartyl N-(methyl)hexylamide] | 316 | 3160 | 50100 |  |  | 
CCCCCN(CCCCC)C(=O)[C@@H](CCC(=O)O)NS(=O)(=O)c1ccc2ccccc2c1 [Example 2, 2-Naphthalenesulphonyl D-glutamyl dipentylamide] | 1000 | 158 | 3980 |  |  | 
CCCCCCN(CCCCCC)C(=O)[C@H](CC(=O)O)NS(=O)(=O)c1ccc2ccccc2c1 [Example 4, 2-Naphthalenesulphonyl-L-aspartyl dihexylamide] | 158 | 126 | 5010 |  |  | 
CCCCCN(CCCOC)C(=O)[C@H](CC(=O)O)NS(=O)(=O)c1ccc2ccccc2c1 [Example 8, 2-Naphthalenesulphonyl-L-aspartyl N-(3-methoxypropyl)pentylamide] |  |  |  | 6.7 | 5.6 | 4.4
